Laboratory results as given in patent US10519162B2, “6,7-dihydropyrazolo[1,5-α]pyrazin-4(5H)-one compounds and their use as negative allosteric modulators of mGluR2 receptors” (Janssen Pharmaceutica NV, priority 2014, dated 2019).

Legend:
[1] = biological target: T1, human mGlu2 receptor (Homo sapiens, UniProt Q14416); test: [35S]GTPγS binding assay (mGluR2 negative allosteric modulation, glutamate ~EC80 60 μM); type: biochemical; details: for Emax / GTPγS-hmGluR2 anGT Emax: maximal % inhibition relative to the control glutamate response (EC80 glutamate); for Emax: read-out: GTPγS-hmGluR2 anGT Emax; for IC50: membranes from CHO cells transfected with human mGlu2 receptor, glutamate ~EC80 (60 μM), pIC50 = −log IC50 (M), read-out: GTPγS-hmGluR2 anGT pIC50 (converted)
T1 construct: expressed in transfected cells; host or cells: CHO cells
T1 sequence (Q14416 19-872): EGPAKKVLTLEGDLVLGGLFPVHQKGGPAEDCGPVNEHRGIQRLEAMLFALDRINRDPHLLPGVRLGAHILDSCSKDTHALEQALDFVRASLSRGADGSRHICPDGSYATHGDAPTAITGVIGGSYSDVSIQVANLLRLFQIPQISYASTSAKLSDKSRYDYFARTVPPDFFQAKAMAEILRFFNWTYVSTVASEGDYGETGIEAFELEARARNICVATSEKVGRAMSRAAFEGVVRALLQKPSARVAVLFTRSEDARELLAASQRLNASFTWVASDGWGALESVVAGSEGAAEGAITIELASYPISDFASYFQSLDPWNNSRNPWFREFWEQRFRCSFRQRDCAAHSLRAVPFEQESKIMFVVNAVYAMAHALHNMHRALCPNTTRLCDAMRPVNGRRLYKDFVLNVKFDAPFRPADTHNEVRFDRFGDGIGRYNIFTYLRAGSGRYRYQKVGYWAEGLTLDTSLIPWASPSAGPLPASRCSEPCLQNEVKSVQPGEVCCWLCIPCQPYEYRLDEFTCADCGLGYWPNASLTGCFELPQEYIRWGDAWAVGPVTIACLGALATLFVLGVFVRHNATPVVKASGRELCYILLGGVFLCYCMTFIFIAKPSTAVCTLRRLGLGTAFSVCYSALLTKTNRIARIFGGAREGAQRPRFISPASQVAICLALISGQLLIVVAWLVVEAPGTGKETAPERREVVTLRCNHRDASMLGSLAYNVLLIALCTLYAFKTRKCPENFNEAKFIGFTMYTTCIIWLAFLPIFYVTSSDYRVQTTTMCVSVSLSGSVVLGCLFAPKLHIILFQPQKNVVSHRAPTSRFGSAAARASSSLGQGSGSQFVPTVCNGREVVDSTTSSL
Method: 1) [^35S]GTPγS Binding Assay
[^35S]GTPγS Binding Assay
Total reaction volume was 200 μl. […] Membrane-bound radioactivity was counted in a Topcount.

[2] = tested on: Male Wiga Wistar rats; test: Reversal of LY-404039-induced decrease of palpebral opening in apomorphine-challenged rats (APO LY-404039); type: in vivo, rat; details: for ED50: Rattus norvegicus, PO (oral route), apomorphine challenged rats
Method: B) In Vivo Pharmacology 1) Reversal of LY-404039-Induced Decrease of Palpebral Opening in Apomorphine-Challenged Rats.
Male Wiga Wistar rats (Crl:WI; Charles River Germany; 220±40 g) were housed under standard laboratory conditions (21±2° C.; 50-65% relative humidity; light-dark cycle set at 12 h; lights on at 6.00 h) and fasted overnight prior to the start of the experiments (tap water remained available ad libitum). During the test period, they were housed in individual cages. Palpebral opening was scored every 5 min over the first hour after injection of apomorphine (1.0 mg/kg, i.v.) in animals either pretreated or not pretreated with LY-404039 (2.5 mg/kg, s.c.) at 1 h prior to the apomorphine injection. The animals were also pretreated with test compound or solvent at a predefined interval before apomorphine challenge. The score system was: (5) exophthalmos, (4) wide open, (3) open for three-quarters, (2) half open, (1) open for one-quarter, (0) closed. The scores for palpebral opening were cumulated over the 60-min observation period.
In animals receiving apomorphine alone the median palpebral opening is 43 whereas in animals receiving apomorphine and LY-404039, the median palpebral opening is 17.

[3] = tested on: rats; test: Reversal of the effect of the mGluR2 PAM JNJ-42153605-induced inhibition of scopolamine-induced hyperlocomotion (SCOP JNJ-42153605); type: in vivo, rat; details: Rattus norvegicus; PO (oral route); rats; reversal criterion total distance >1500 cm
Method in brief: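 Rats got test compound or vehicle 60 min pre-recording, JNJ-42153605 (20 mg/kg, i.v.) 30 min pre-recording, then scopolamine (0.16 mg/kg, i.v.) just before. Total distance over the first 30 min was video-tracked; all-or-none reversal criterion: total distance >1500 cm.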

[4] = tested on: Wiga rats; test: Induction of mydriasis (MYD); type: in vivo; details: Rattus norvegicus, PO (oral route), pupil diameter >25 units, 1-3 h post-administration
Method: 3) Induction of Mydriasis
The pupil diameter of Wiga rats was measured with a microscopic micrometer (1 unit=1/24 mm). Criteria for drug-induced effects: pupil diameter >25 units for mydriasis (in controls: 1.9%) 1, 2 or 3 h post-administration of the test compound (wherein the maximum pupil diameter over the full 3 h period is reported).

[5] = control animals, cumulative score over 60 min

Emax [1] [%] | IC50 [1] [M] | melting point [°C] | GTPγS-hmGluR2 anGT Emax [1] [%] | Compound | ED50 [2] [mg/kg] | ED50 [3] [mg/kg] | ED50 [4] [mg/kg] | Palpebral opening score, occurrence score > 26 (%) [2, 5] [%] | Palpebral opening score, occurrence score > 34 (%) [2, 5] [%] | Palpebral opening score, median score ([2]; control animals, scores cumulated over 60 min after apomorphine 1.0 mg/kg i.v., LY-404039 2.5 mg/kg s.c. 1 h before)
105 | 8.51e-09 | 166.06 |  | C[C@H]1CN(c2ccc(C(F)(F)F)c(F)c2)C(=O)c2c(NC(=O)c3cccnc3)cnn21 [Co. No. 148] | > 0.63 | > 0.63 |  |  |  | 
105 | 4.57e-09 | 120.33 |  | Cc1cc(N2C[C@H](C)n3ncc(NC(=O)c4cccnc4)c3C2=O)ccc1C(F)(F)F [Co. No. 145] | 0.5 | > 0.63 | 6.6 |  |  | 
104 | 2.29e-09 | 108.41 |  | Cc1cc(C(=O)Nc2cnn3c2C(=O)N(c2ccc(Cl)c(Cl)c2)C[C@@H]3C)ccn1 [Co. No. 171] | > 0.63 | > 0.63 |  |  |  | 
109 | 2.63e-09 | 188.46 |  | C[C@H]1CN(c2ccc(OC(F)(F)F)cc2)C(=O)c2c(NC(=O)c3cccnc3N)cnn21 [Co. No. 196] |  | 0.32 | > 10 |  |  | 
113 | 1.07e-09 | 193.17 |  | C[C@H]1CN(c2ccc(Cl)c(Cl)c2)C(=O)c2c(NC(=O)c3cccnc3N)cnn21 [Co. No. 185] |  | 0.08 | > 10 |  |  | 
107 | 2.04e-09 | 164.61 |  | Cc1cc(C(=O)Nc2cnn3c2C(=O)N(c2ccc(C(F)(F)F)c(C)c2)C[C@@H]3C)cc(C)n1 [Co. No. 113] |  | 0.5 | > 40 |  |  | 
105 | 1.48e-08 | 125.45 |  | C[C@H]1CN(c2ccc(OC(F)(F)F)cc2)C(=O)c2c(NC(=O)c3cccnc3)cnn21 [Co. No. 178] |  | 0.318 | > 10 |  |  | 
109 | 1.82e-09 | 145.92 |  | Cc1ccncc1C(=O)Nc1cnn2c1C(=O)N(c1ccc(C(F)(F)F)c(Cl)c1)C[C@@H]2C [Co. No. 120] | > 0.63 | > 0.63 |  |  |  | 
110 | 1.23e-09 | 175.63 |  | Cc1cc(N2C[C@H](C)n3ncc(NC(=O)c4cccnc4N)c3C2=O)ccc1C(F)(F)F [Co. No. 184] |  | 0.2 | > 10 |  |  | 
110 | 7.08e-10 | 142.58 |  | C[C@H]1CN(c2ccc(C(F)(F)F)c(Cl)c2)C(=O)c2c(NC(=O)c3cccnc3N)cnn21 [Co. No. 182] |  | 0.0985 | > 10 |  |  | 

Continued, compound first:

Compound | Emax [1] [%] | IC50 [1] [M] | melting point [°C] | GTPγS-hmGluR2 anGT Emax [1] [%] | ED50 [2] [mg/kg] | ED50 [3] [mg/kg] | ED50 [4] [mg/kg] | Palpebral opening score, occurrence score > 26 (%) [2, 5] [%] | Palpebral opening score, occurrence score > 34 (%) [2, 5] [%] | Palpebral opening score, median score ([2]; control animals, scores cumulated over 60 min after apomorphine 1.0 mg/kg i.v., LY-404039 2.5 mg/kg s.c. 1 h before)
COCC1CN(c2ccc(C(F)(F)F)cc2)C(=O)c2c(NC(=O)c3ccc(N)nc3)cnn21 (single isomer, unassigned) [Co. No. 95] |  | 6.31e-09 | 225.94 | 114 | > 2.5 | 1.26 |  |  |  | 
COCC1CN(c2ccc(C(F)(F)F)cc2)C(=O)c2c(NC(=O)c3ccccc3F)cnn21 (single isomer, unassigned) [Co. No. 62a] |  | 1.26e-08 | 162.59 | 111 | > 2.5 | > 2.5 |  |  |  | 
C[C@H]1CN(c2ccc(C(F)(F)F)cc2)C(=O)c2c(NC(=O)c3cccnc3)cnn21 [Co. No. 28] | 107 | 7.59e-09 | 152.59 |  | 0.78 | 0.39 | 25 |  |  | 
CN1CCc2cccc3c2[C@H]1Cc1ccc(O)c(O)c1-3 [Apomorphine alone, apomorphine, reference compound] |  |  |  |  |  |  |  | 99.5 | 95.9 | 43
Cc1cc(N2C[C@H](C)n3ncc(NC(=O)c4ccc(N)nc4)c3C2=O)ccc1C(F)(F)F [Co. No. 4] | 106 | 1.66e-09 | 202.24 |  | 1.26 | 0.5 |  |  |  | 
Cc1cc(C(=O)Nc2cnn3c2C(=O)N(c2ccc(C(F)(F)F)cc2)C[C@@H]3C)cc(C)n1 [Co. No. 93] | 110 | 2.75e-09 | 154.26 |  | 0.79 | 0.5 |  |  |  | 
Cc1cc(C(=O)Nc2cnn3c2C(=O)N(c2ccc(C(F)(F)F)c(Cl)c2)C[C@@H]3C)ccn1 [Co. No. 12] | 107 | 2.14e-09 | 159.96 |  | 0.42 | 0.32 | 21.5 |  |  | 
C[C@H]1CN(c2ccc(C(F)(F)F)c(Cl)c2)C(=O)c2c(NC(=O)c3ccc(N)nc3)cnn21 [Co. No. 1, 6-Amino-N-[(7S)-5-[3-chloro-4-(trifluoromethyl)phenyl]-7-methyl-4-oxo-6,7-dihydropyrazolo[1,5-a]pyrazin-3-yl]pyridine-3-carboxamide] | 109 | 1.15e-09 | 219.62 |  | 0.39 | 0.26 | 14.1 |  |  | 
Cc1cc(C(=O)Nc2cnn3c2C(=O)N(c2ccc(Cl)c(Cl)c2)C[C@@H]3C)cc(C)n1 [Co. No. 106] | 108 | 1.07e-09 | 186.11 |  | > 0.63 | > 0.63 |  |  |  | 
Cc1cncc(C(=O)Nc2cnn3c2C(=O)N(c2ccc(C(F)(F)F)c(Cl)c2)C[C@@H]3C)c1 [Co. No. 101, N-[(7S)-5-[3-chloro-4-(trifluoromethyl)phenyl]-7-methyl-4-oxo-6,7-dihydropyrazolo[1,5-a]pyrazin-3-yl]-5-methyl-pyridine-3-carboxamide] | 107 | 1.12e-09 | 160.38 |  | 0.18 | > 0.63 | 5 |  |  | 
C[C@H]1CN(c2ccc(C(F)(F)F)c(F)c2)C(=O)c2c(NC(=O)c3ccc(N)nc3)cnn21 [Co. No. 13] | 109 | 2.63e-09 | 207.25 |  | 0.2 | 0.32 |  |  |  | 
